Experimental data published in US8933100B2 (priority 2012, dated 2015).
Where two headings read alike, the source gives them in different places.

Legend:
serotonin transporter = target: T1, serotonin transporter (Rattus norvegicus, UniProt P31652); experiment: Inhibitory action on serotonin transporter (fluorescent substrate uptake in rat platelets); assay type: cell-based
T1 construct: evaluated using rat platelets expressing serotonin transporters; from tissue
Method: That is, the test compound was added to rat platelets, the fluorescent substance of a Neurotransmitter Transporter Activity Assay Kit (Molecular Devices, R8174) was added beginning after 15 minutes, and changes in fluorescent intensity from uptake of the fluorescent substance were measured over time to evaluate the inhibitory effect of the test compound on serotonin transporter.
2 Centrifugation was carried out at 350 g at room temperature for 5 minutes, and the supernatant containing platelet-rich plasma was collected in 15 ml falcon tubes.
3 Centrifugation was carried out at 2100 g at room temperature for 10 minutes to obtain platelets as a pellet. Ca-free K5 buffer was added in the amount of 0.7 times the amount of platelet-rich plasma obtained in operation 2, and the pellet was triturated by pipetting.
5 The fluorescent substance of a Neurotransmitter Transporter Activity Assay Kit was added, and changes in fluorescent intensity over time from uptake of the fluorescent substance through serotonin transporters were measured with a FDSS 6000 (Hamamatsu Photonics).

male BALB/c mice = experiment: In vivo efficacy test by forced swimming; design: species or system mouse; conditions: oral, 1 hour before test; Example 1 10, 30 or 100 mg/kg, paroxetine 30 or 100 mg/kg; last 4 minutes; FIG. 1
Method: After 1 hour, the mice were placed individually in glass cylinders (19 cm in height, 9 cm in diameter) holding 9 cm of water, and observed at 23° C. for 6 minutes, during which time their behavior was recorded with a video camera. The control group was given the same amount of vehicle (0.5% methyl cellulose solution, 10 mL/kg).
The immobility times during the last 4 minutes were calculated from the video recordings. The mice were considered to be immobile if the following three behavioral criteria were met: they stopped struggling, stopped climbing, and floated on the water basically immobile, with only the slight movement necessary to keep their heads above water.

CYP2C9 [1] = target: T2, CYP2C9 (Homo sapiens, UniProt P11712); experiment: Time-dependent CYP inhibition (Method 1), human hepatic microsome; assay type: in vitro ADME; conditions: 30 min pre-incubation at 37° C., tolbutamide, n = 2
Method: (§2) The test substance was added to an enzyme solution (containing human hepatic microsome (0.2 mg/mL), 100 mM Kpi and 0.1 mM EDTA), and pre-incubated for 30 minutes at 37° C. in the presence of or absence of the coenzyme. The final concentration of the test substance was set at 0.1, 0.2, 0.4, 0.5, 1, 2, 10 or 50 μM. A NADPH generating system (60 mM MgCl2 solution containing 3.6 mM β-NADP^+, 90 mM glucose-6 phosphate and 1 Unit/mL glucose-6-phosphate dehydrogenase, incubated for 5 minutes to generate NADPH) was used as the coenzyme. After pre-incubation, part of the reaction solution was collected, diluted 10 times by mixing with a model substrate solution and the NADPH generating system, and then incubated for 10 minutes at 37° C. An equal amount of a mixed solution of acetonitrile and methanol (1:1, containing 0.05 μM dextrophan or 0.05 μM propranolol as an internal standard) was added to terminate the reaction, and metabolites of the model substrate in the reaction solution were measured by LC-MS/MS. […] The ratio relative to the amount of model substrate metabolites in the control test was given as residual activity. The ratio of residual activity in the presence of NADPH relative to residual activity in the absence of NADPH was evaluated, and the ratio of 80% or less was defined “+”, while the ratio of above 80% was defined as “−”.

CYP2C19 [2] = target: T3, CYP2C19 (Homo sapiens, UniProt P33261); experiment: as above; assay type: in vitro ADME; conditions: 30 min pre-incubation at 37° C., S-mephenytoin, n = 2
Method: as §2

CYP2D6 [3] = target: T4, CYP2D6 (Homo sapiens, UniProt P10635); experiment: as above; assay type: in vitro ADME; conditions: 30 min pre-incubation at 37° C., bufuralol, n = 2
Method: as §2

CYP3A4 [4] = target: T5, CYP3A4 (Homo sapiens, UniProt P08684); experiment: as above; assay type: in vitro ADME; conditions: 30 min pre-incubation at 37° C., midazolam, n = 2
Method: as §2

CYP2C19 [5] = target: T3, CYP2C19; experiment: Competitive CYP inhibition (Method 2), human hepatic microsome; assay type: in vitro ADME
Method: (§1) The inhibition rate was determined from the amounts of model substrate metabolites with and without addition of the test substance at each test substance concentration, and the IC50 value was calculated from the inhibition rate (calculation method in accordance with Xenobiotica, 1999, 29(1), 53-75).

CYP2C9 [6] = target: T2, CYP2C9; experiment: as above; assay type: in vitro ADME
Method: as §1

CYP2D6 [7] = target: T4, CYP2D6; experiment: as above; assay type: in vitro ADME
Method: as §1

CYP3A4 [8] = target: T5, CYP3A4; experiment: as above; assay type: in vitro ADME
Method: as §1

CYP1A2 [9] = target: T6, CYP1A2 (Homo sapiens, UniProt P05177); conditions: 30 min pre-incubation at 37° C., phenacetin, n = 2
T6 sequence (P05177 1-516): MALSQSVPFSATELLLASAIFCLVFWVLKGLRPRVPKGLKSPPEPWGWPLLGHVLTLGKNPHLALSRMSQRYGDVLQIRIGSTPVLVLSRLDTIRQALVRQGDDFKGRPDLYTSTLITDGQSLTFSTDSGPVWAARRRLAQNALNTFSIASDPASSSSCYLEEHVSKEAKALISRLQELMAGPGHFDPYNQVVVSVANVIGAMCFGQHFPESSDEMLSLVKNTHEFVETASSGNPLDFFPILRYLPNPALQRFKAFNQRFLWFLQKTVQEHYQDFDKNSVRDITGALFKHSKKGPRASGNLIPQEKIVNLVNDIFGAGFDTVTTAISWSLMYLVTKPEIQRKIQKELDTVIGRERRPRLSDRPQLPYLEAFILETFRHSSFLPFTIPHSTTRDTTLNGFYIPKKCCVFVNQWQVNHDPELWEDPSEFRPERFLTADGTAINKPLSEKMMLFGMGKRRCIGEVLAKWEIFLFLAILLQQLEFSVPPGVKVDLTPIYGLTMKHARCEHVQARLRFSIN
Method: as §2

CYP1A2 [10] = target: T6, CYP1A2; experiment: Competitive CYP inhibition (Method 2), human hepatic microsome; assay type: in vitro ADME; design: containing human hepatic microsome (0.2 mg/mL); from tissue; host or cells: human hepatic microsomal fraction; conditions: tested at 1 or 10 μM, phenacetin 10 μM, n = 2; read-out: CYP1A2 IC50 score (competitive inhibition)
Method: as §1

T2 sequence (P11712 whole entry): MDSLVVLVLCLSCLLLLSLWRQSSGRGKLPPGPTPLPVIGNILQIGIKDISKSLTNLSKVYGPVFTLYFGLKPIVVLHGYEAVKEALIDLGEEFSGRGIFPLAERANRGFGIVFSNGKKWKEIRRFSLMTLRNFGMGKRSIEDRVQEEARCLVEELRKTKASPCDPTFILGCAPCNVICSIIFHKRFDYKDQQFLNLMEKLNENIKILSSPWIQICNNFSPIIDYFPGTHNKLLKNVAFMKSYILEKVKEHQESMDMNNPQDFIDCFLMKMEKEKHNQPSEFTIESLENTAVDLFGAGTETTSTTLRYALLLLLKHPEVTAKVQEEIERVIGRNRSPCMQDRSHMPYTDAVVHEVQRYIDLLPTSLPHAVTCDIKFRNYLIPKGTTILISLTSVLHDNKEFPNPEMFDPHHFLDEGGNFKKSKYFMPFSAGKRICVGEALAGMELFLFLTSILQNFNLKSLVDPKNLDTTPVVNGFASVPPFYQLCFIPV
T5 sequence (P08684 whole entry): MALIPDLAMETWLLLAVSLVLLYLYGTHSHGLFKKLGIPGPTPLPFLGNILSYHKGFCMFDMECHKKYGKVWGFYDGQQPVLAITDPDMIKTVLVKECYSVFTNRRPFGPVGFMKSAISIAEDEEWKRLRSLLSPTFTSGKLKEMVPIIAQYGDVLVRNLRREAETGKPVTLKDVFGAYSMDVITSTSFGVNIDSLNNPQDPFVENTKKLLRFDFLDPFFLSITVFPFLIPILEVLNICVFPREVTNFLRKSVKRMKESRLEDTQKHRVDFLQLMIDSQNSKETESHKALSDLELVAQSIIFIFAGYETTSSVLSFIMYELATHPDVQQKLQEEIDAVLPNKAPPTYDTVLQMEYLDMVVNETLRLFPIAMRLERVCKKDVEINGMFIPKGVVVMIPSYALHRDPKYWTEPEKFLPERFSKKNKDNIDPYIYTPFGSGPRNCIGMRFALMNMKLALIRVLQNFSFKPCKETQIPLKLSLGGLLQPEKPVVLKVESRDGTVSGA
T4 sequence (P10635 whole entry): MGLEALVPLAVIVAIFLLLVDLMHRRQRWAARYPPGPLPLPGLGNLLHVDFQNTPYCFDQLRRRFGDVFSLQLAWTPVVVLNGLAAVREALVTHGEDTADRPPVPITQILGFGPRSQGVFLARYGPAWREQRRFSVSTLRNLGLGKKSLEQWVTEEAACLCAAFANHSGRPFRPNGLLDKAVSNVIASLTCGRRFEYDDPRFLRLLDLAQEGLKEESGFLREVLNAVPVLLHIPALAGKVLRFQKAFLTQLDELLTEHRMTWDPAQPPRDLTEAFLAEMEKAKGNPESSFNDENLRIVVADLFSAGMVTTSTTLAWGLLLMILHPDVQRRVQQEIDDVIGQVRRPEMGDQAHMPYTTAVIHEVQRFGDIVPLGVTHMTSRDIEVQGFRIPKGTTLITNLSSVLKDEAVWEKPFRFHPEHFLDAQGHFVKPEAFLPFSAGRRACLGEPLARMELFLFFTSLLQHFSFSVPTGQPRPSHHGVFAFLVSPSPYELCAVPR
T3 sequence (P33261 whole entry): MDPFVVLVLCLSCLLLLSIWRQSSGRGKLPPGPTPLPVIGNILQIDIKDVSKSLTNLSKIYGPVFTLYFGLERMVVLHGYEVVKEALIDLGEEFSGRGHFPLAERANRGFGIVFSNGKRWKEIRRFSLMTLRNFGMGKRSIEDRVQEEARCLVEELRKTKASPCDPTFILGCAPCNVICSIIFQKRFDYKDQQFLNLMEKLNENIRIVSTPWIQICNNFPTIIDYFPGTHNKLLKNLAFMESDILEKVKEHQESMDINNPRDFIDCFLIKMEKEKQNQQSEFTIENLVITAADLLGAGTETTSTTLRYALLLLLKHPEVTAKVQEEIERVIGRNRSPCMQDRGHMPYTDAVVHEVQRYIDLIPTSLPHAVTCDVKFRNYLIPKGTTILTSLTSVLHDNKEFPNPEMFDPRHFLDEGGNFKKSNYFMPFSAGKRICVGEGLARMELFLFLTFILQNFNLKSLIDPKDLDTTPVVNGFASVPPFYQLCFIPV
T1 sequence (P31652 whole entry): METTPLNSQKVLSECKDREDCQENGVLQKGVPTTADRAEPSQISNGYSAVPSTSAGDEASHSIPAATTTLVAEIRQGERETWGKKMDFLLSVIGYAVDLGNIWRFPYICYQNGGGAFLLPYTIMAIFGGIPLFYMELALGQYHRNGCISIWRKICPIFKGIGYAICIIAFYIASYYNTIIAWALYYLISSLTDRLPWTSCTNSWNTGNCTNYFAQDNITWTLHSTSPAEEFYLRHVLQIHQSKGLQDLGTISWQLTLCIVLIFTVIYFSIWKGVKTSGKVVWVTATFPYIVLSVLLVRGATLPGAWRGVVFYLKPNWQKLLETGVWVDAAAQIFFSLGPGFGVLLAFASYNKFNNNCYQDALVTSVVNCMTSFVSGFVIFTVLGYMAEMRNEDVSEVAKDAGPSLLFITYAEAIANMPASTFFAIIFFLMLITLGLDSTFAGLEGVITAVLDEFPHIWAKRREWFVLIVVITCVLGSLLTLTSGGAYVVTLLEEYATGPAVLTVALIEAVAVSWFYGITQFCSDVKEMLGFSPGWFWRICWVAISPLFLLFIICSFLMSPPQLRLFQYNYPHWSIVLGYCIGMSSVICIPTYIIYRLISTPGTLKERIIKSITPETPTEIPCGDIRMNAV

Structure (SMILES)	IC50 (serotonin transporter) [nM]	immobility time in forced swimming test (male BALB/c mice)	Ratio of residual CYP2C9 activity in presence vs absence of NADPH after pre-incubation (CYP2C9 [1]; 10 μM)	Ratio of residual CYP2C9 activity in presence vs absence of NADPH after pre-incubation (CYP2C9 [1]; 50 μM)	Ratio of residual CYP2C19 activity in presence vs absence of NADPH after pre-incubation (CYP2C19 [2]; 10 μM)	Ratio of residual CYP2C19 activity in presence vs absence of NADPH after pre-incubation (CYP2C19 [2]; 50 μM)	Ratio of residual CYP2D6 activity in presence vs absence of NADPH after pre-incubation (CYP2D6 [3]; 10 μM)	Ratio of residual CYP2D6 activity in presence vs absence of NADPH after pre-incubation (CYP2D6 [3]; 50 μM)	Ratio of residual CYP3A4 activity in presence vs absence of NADPH after pre-incubation (CYP3A4 [4]; 10 μM)	Ratio of residual CYP3A4 activity in presence vs absence of NADPH after pre-incubation (CYP3A4 [4]; 50 μM)	IC50 (CYP2C19 [5]) [µM]	IC50 (CYP2C9 [6]) [µM]	IC50 (CYP2D6 [7]) [µM]	IC50 (CYP3A4 [8]) [µM]	Ratio of residual CYP1A2 activity in presence vs absence of NADPH after pre-incubation (CYP1A2 [9]; 10 μM)	Ratio of residual CYP1A2 activity in presence vs absence of NADPH after pre-incubation (CYP1A2 [9]; 50 μM)	IC50 (CYP1A2 [10]) [µM]	IC50 (CYP2C9 [6]; tested at 1 or 10 μM, tolbutamide 100 μM, n = 2, read-out: CYP2C9 IC50 score (competitive inhibition)) [µM]
Fc1ccc([C@@H]2CCNC[C@H]2COc2ccc3c(c2)COC3)cc1 [Example 1, (3S,4R)-3-[(1,3-dihydro-2-benzofuran-5-yloxy)methyl]-4-(4-fluorophenyl)piperidine]	2.4	dose-dependently suppressed immobility time	− (the ratio of above 80% was defined as “−”)	− (the ratio of above 80% was defined as “−”)	− (the ratio of above 80% was defined as “−”)	− (the ratio of above 80% was defined as “−”)	− (the ratio of above 80% was defined as “−”)	− (the ratio of above 80% was defined as “−”)	− (the ratio of above 80% was defined as “−”)	− (the ratio of above 80% was defined as “−”)	> 10	> 10	> 10	> 10	− (the ratio of above 80% was defined as “−”)	− (the ratio of above 80% was defined as “−”)	> 10	
Fc1ccc([C@@H]2CCNC[C@H]2COc2ccc3c(c2)OCO3)cc1 [Paroxetine, (3S,4R)-3-[(2H-1,3-benzodioxol-5-yloxy)methyl]-4-(4-fluorophenyl)piperidine, reference compound]		dose-dependently suppressed immobility time															> 10	> 10
